Test results: paper PMC5452262 (2016)

How the values were obtained:
[1] = system: TBP-regulated control #1 (lacks GC-rich stem) (DNA, hairpin) TTATATAAATTTTTTATATATTTTTTTTATT; assay: fluorescence anisotropy; conditions: 150 mM NaCl, 10 mM MgCl2; 50 mM sodium phosphate pH 7.0, 25 °C; equimolar doxorubicin and DNA, 100 nM
[2] = system: TBP-regulated DNA-nanoswitch variant #1 (DNA, hairpin) CTATATAAACCTTTTATATATCTTGGGTAGG; assay: fluorescence anisotropy titration; conditions: 150 mM NaCl, 10 mM MgCl2; 50 mM sodium phosphate pH 7.0, 25 °C; 100 nM doxorubicin titrated with DNA
[3] = system: TBP-regulated DNA-nanoswitch variant #2 (DNA, hairpin) CTATATAAAGCCCTTTTATATATCTTGGGTAGGGC; assay: fluorescence anisotropy titration; conditions: 150 mM NaCl, 10 mM MgCl2; 50 mM sodium phosphate pH 7.0, 25 °C; 100 nM doxorubicin titrated with DNA
[4] = system: TBP-regulated DNA-nanoswitch variant #3 (DNA, hairpin) CTATATAAACCGCCCTTTTATATATCTTGGGTAGGGCGG; assay: fluorescence anisotropy titration; conditions: 150 mM NaCl, 10 mM MgCl2; 50 mM sodium phosphate pH 7.0, 25 °C; 100 nM doxorubicin titrated with DNA
[5] = system: antibody-regulated DNA-nanoswitch variant #1 (DNA, hairpin) TAGTTTTTTTTTTTTTTTTCTA; assay: fluorescence anisotropy titration; conditions: 150 mM NaCl, 10 mM MgCl2; 50 mM sodium phosphate pH 7.0, 25 °C; 100 nM doxorubicin titrated with DNA
[6] = system: antibody-regulated DNA-nanoswitch variant #2 (DNA, hairpin) TCCGTTTTTTTTTTTTTTTTCGGA; assay: fluorescence anisotropy titration; conditions: 150 mM NaCl, 10 mM MgCl2; 50 mM sodium phosphate pH 7.0, 25 °C; 100 nM doxorubicin titrated with DNA
[7] = system: antibody-regulated DNA-nanoswitch variant #3 (DNA, hairpin) TCGCCGTTTTTTTTTTTTTTTTCGGCGA; assay: fluorescence anisotropy titration; conditions: 150 mM NaCl, 10 mM MgCl2; 50 mM sodium phosphate pH 7.0, 25 °C; 100 nM doxorubicin titrated with DNA

COc1cccc2c1C(=O)c1c(O)c3c(c(O)c1C2=O)C[C@@](O)(C(=O)CO)C[C@@H]3O[C@H]1C[C@H](N)[C@H](O)[C@H](C)O1
binding [1]: weak
binding [2]: yes
binding [3]: yes
binding [4]: yes
binding [5]: weak
binding [6]: yes
binding [7]: yes
